The nature of data set [1]: Selectivity index, ratio of MCC for African green monkey Vero E6 cells to IC50 for HSV-1 L2 infected in African green monkey Vero E6 cells. Also noted: species or system Vero C1008.
Data set [2] concerns Human alphaherpesvirus 1. The experiment in a line: Antiviral activity against acyclovir and cidofovir-resistant HSV-1 L2 infected in African green monkey Vero E6 cells assessed as reduction in virus-induced cytopathic effect. In kind it is functional. The conditions noted are these: Human alphaherpesvirus 1, L2, Vero C1008. A general note: Protection from cytopathic effect is a common read-out in antiviral testing.

Data set [3] deals with Human alphaherpesvirus 1. The experiment in a line: Antiviral activity against acyclovir and foscarnet-resistant HSV-1 L2 infected in African green monkey Vero E6 cells assessed as reduction in virus-induced cytopathic effect. The data set is classed as functional. The conditions noted are these: Human alphaherpesvirus 1, L2, Vero C1008.
Data set [4] deals with Human alphaherpesvirus 1. The experiment in a line: Antiviral activity against acyclovir-resistant HSV-1 L2 infected in African green monkey Vero E6 cells assessed as reduction in virus-induced cytopathic effect. The data set is classed as functional. The conditions noted are these: Human alphaherpesvirus 1, L2, Vero C1008.
Data set [5] in a line: Selectivity index, ratio of MCC for African green monkey Vero E6 cells to IC50 for acyclovir and foscarnet-resistant HSV-1 L2 infected in African green monkey Vero E6 cells. Set-up: species or system Vero C1008.
Data set [6] has as its system Human alphaherpesvirus 1. Description: Antiviral activity against HSV-1 L2/Rp-ACV/2 infected in African green monkey Vero E6 cells assessed as reduction in virus-induced cytopathic effect. The data set is classed as functional. The conditions noted are these: Human alphaherpesvirus 1, L2/Rp-ACV/2, Vero C1008.
In data set [7] the test system is Human alphaherpesvirus 1. The experiment in a line: Antiviral activity against foscarnet-resistant HSV-1 F+ infected in African green monkey Vero E6 cells assessed as reduction in virus-induced cytopathic effect. The data set is classed as functional. As to conditions: Human alphaherpesvirus 1, F+, Vero C1008.
A short description of data set [8]: Selectivity index, ratio of MCC for African green monkey Vero E6 cells to IC50 for HSV-1 F+ infected in African green monkey Vero E6 cells. Also noted: species or system Vero C1008.
For data set [9], the system named is Human alphaherpesvirus 1. The experiment in a line: Antiviral activity against HSV1 L2 infected in African green monkey Vero E6 cells assessed as reduction in virus-induced cytopathic effect. The data set is classed as functional. As to conditions: Human alphaherpesvirus 1, L2, Vero C1008.
Data set [10] in a line: Selectivity index, ratio of MCC for African green monkey Vero E6 cells to IC50 for acyclovir-resistant HSV-1 L2 infected in African green monkey Vero E6 cells. Set-up: species or system Vero C1008.
Data set [11] in a line: Selectivity index, ratio of MCC for African green monkey Vero E6 cells to IC50 for HSV-1 L2/Rp-ACV/2 infected in African green monkey Vero E6 cells. Also noted: species or system Vero C1008.
A short description of data set [12]: Cytotoxicity against African green monkey Vero E6 cells measured after 3 days by trypan blue assay. The data set is classed as cell-based, Vero C1008. As to conditions: chlorocebus sabaeus.
A short description of data set [13]: Selectivity index, ratio of MCC for African green monkey Vero E6 cells to IC50 for acyclovir and cidofovir-resistant HSV-1 L2 infected in African green monkey Vero E6 cells. Also noted: species or system Vero C1008.

pIC50: −log10 of the molar value.

Turning to `Nc1nc2c(ncn2COCCO)c(=O)[nH]1` [ACYCLOVIR], the “Selectivity Index” value in data set [1] is listed as more than 256; in data set [5], more than 1; in data set [8], more than 128; in [10] it was more than 1; in data set [11], 16; in data set [13] it was more than 26. Also, the negative-log IC50 (pIC50) was 4.76 in the data set with Human alphaherpesvirus 1 [2]; less than 3.35 in the data set with Human alphaherpesvirus 1 [3]; less than 3.35 with Human alphaherpesvirus 1 [4]; 4.56 in the data set with Human alphaherpesvirus 1 [6]; 5.46 with Human alphaherpesvirus 1 [7]; 5.76 in the data set with Human alphaherpesvirus 1 [9]. Further, the 95% effect concentration (IC95) with Human alphaherpesvirus 1 [2] was 139 µM; with Human alphaherpesvirus 1 [3], more than 444 µM; with Human alphaherpesvirus 1 [4] it was more than 444 µM; in the data set on Human alphaherpesvirus 1 [6], 111 µM; with Human alphaherpesvirus 1 [7], 13.9 µM; in the data set with Human alphaherpesvirus 1 [9], 6.9 µM. In addition, in [12], the MCC at 72 h is more than 444 µM.
In the case of `Nc1ccn(C[C@@H](CO)OCP(=O)(O)O)c(=O)n1.O.O` [CIDOFOVIR], the “Selectivity Index” value in data set [1] is recorded as more than 26; in data set [5] it was more than 51; in data set [8] it was more than 13; in data set [10], more than 26; in [11] it was more than 204; in [13], more than 6.4. Also, the negative-log IC50 (pIC50) is 3.95 in the data set with Human alphaherpesvirus 1 [2]; 5.15 in the data set with Human alphaherpesvirus 1 [3]; 4.85 in the data set on Human alphaherpesvirus 1 [4]; 5.74 with Human alphaherpesvirus 1 [6]; 4.55 with Human alphaherpesvirus 1 [7]; 4.85 in the data set with Human alphaherpesvirus 1 [9]. Besides, the IC95 came to 895 µM in the data set on Human alphaherpesvirus 1 [2]; 27.9 µM in the data set with Human alphaherpesvirus 1 [3]; 55.9 µM in the data set on Human alphaherpesvirus 1 [4]; 27.9 µM with Human alphaherpesvirus 1 [6]; 448 µM in the data set on Human alphaherpesvirus 1 [7]; 55.9 µM in the data set with Human alphaherpesvirus 1 [9]. Also, the MCC at 72 h in data set [12] is more than 358 µM.
`CC(C)Nc1nc2cc(Cl)c(Cl)cc2n1[C@H]1O[C@@H](CO)[C@H](O)[C@@H]1O` [MARIBAVIR]: the “Selectivity Index” value in data set [1] was found to be 1. Moreover, in the data set with Human alphaherpesvirus 1 [9], the pIC50 is 3.18 and the IC95 is more than 665 µM. Moreover, the MCC at 72 h in data set [12] came to 665 µM.
In the case of `O.O.O.O.O.O.O=C([O-])P(=O)([O-])[O-].[Na+].[Na+].[Na+]`, the “Selectivity Index” value stood at 8 in [1]; 2 in data set [5]; 1 in data set [8]; 8 in [10]; 16 in data set [11]; 8 in data set [13]. Besides, the pIC50 was 3.98 in the data set on Human alphaherpesvirus 1 [2]; 3.38 in the data set with Human alphaherpesvirus 1 [3]; 3.98 in the data set with Human alphaherpesvirus 1 [4]; 4.28 with Human alphaherpesvirus 1 [6]; 3.08 in the data set with Human alphaherpesvirus 1 [7]; 3.98 in the data set on Human alphaherpesvirus 1 [9]. In addition, the IC95 is 208 µM with Human alphaherpesvirus 1 [2]; more than 833 µM in the data set on Human alphaherpesvirus 1 [3]; 208 µM in the data set with Human alphaherpesvirus 1 [4]; 104 µM in the data set with Human alphaherpesvirus 1 [6]; more than 833 µM in the data set on Human alphaherpesvirus 1 [7]; 208 µM in the data set with Human alphaherpesvirus 1 [9]. Moreover, the MCC at 72 h in data set [12] stood at 833 µM.
With `Nc1nc2cc(F)c(F)cc2n1[C@H]1C[C@H](O)[C@@H](CO)O1`, in data set [1], the “Selectivity Index” value is given as more than 4. Also, in the data set with Human alphaherpesvirus 1 [9], the negative logarithm of the IC50 (pIC50) is 3.06 and the IC95 stood at 3510 µM. Also, the MCC at 72 h in [12] is more than 3500 µM.
In the case of `NC(=O)c1ncn([C@@H]2O[C@H](CO)[C@@H](O)[C@H]2O)n1` [RIBAVIRIN], the “Selectivity Index” value in [1] is reported as more than 8; in data set [5] it was more than 4; in data set [8], more than 4; in [10], more than 4; in [11], more than 4; in [13] it was more than 4. Further, the pIC50 in the data set on Human alphaherpesvirus 1 [2] is 2.99; with Human alphaherpesvirus 1 [3] it was 2.99; with Human alphaherpesvirus 1 [4], 2.99; with Human alphaherpesvirus 1 [6], 2.99; in the data set on Human alphaherpesvirus 1 [9], 3.29. For the same compound, the IC95 in the data set on Human alphaherpesvirus 1 [2] was more than 4100 µM; in the data set with Human alphaherpesvirus 1 [3] it was more than 4100 µM; in the data set on Human alphaherpesvirus 1 [4], more than 4100 µM; with Human alphaherpesvirus 1 [6], more than 4100 µM; in the data set with Human alphaherpesvirus 1 [7], more than 4100 µM; in the data set on Human alphaherpesvirus 1 [9], 2050 µM. Further, the MCC at 72 h in data set [12] was more than 4100 µM.

By pIC50 is commonly meant the IC50 on a negative log10 scale, so that one unit is a factor of ten. Broadly, the IC95 is the point of the concentration-response curve where the effect stands at 95%.
